Measurements from US20040063662A1, “Selenophene anti-tumor agents” (priority 1996, published 2004).

How the values were obtained:
K-562 = experiment: NCI human tumor cell panel: K-562 (Leukemia); type: cell-based
RPMI-8226 = experiment: NCI human tumor cell panel: RPMI-8226 (Leukemia); type: cell-based
SR = experiment: NCI human tumor cell panel: SR (Leukemia); type: cell-based
A549/ATCC = experiment: NCI human tumor cell panel: A549/ATCC (Non-Small Cell Lung Cancer); type: cell-based
EKVX = experiment: NCI human tumor cell panel: EKVX (Non-Small Cell Lung Cancer); type: cell-based
NCI-H322M = experiment: cells; type: cell-based; settings: Homo sapiens
NCI-H460 = experiment: NCI human tumor cell panel: NCI-H460 (Non-Small Cell Lung Cancer); type: cell-based
KM12 = experiment: NCI human tumor cell panel: KM12 (Colon Cancer); type: cell-based
SF-295 = experiment: NCI human tumor cell panel: SF-295 (CNS Cancer); type: cell-based
SF-539 = experiment: NCI human tumor cell panel: SF-539 (CNS Cancer); type: cell-based
SNB-19 = experiment: NCI human tumor cell panel: SNB-19 (CNS Cancer); type: cell-based
LOX IMVI = experiment: NCI human tumor cell panel: LOX IMVI (Melanoma); type: cell-based
MALME-3M = experiment: NCI human tumor cell panel: MALME-3M (Melanoma); type: cell-based; settings: Malme-3M
SK-MEL-28 = experiment: NCI human tumor cell panel: SK-MEL-28 (Melanoma); type: cell-based
UACC-257 = experiment: NCI human tumor cell panel: UACC-257 (Melanoma); type: cell-based
IGROV1 = experiment: NCI human tumor cell panel: IGROV1 (Ovarian Cancer); type: cell-based
OVCAR-3 = experiment: NCI human tumor cell panel: OVCAR-3 (Ovarian Cancer); type: cell-based
OVCAR-4 = experiment: NCI human tumor cell panel: OVCAR-4 (Ovarian Cancer); type: cell-based; settings: OVCAR-4, read-out: Log10 GI50 (converted)
OVCAR-5 = experiment: NCI human tumor cell panel: OVCAR-5 (Ovarian Cancer); type: cell-based
OVCAR-8 = experiment: NCI human tumor cell panel: OVCAR-8 (Ovarian Cancer); type: cell-based
786-0 = experiment: NCI human tumor cell panel: 786-0 (Renal Cancer); type: cell-based
A498 = experiment: NCI human tumor cell panel: A498 (Renal Cancer); type: cell-based
ACHN = experiment: NCI human tumor cell panel: ACHN (Renal Cancer); type: cell-based
TK-10 = experiment: NCI human tumor cell panel: TK-10 (Renal Cancer); type: cell-based
UO-31 = experiment: NCI human tumor cell panel: UO-31 (Renal Cancer); type: cell-based
PC-3 = experiment: NCI human tumor cell panel: PC-3 (Prostate Cancer); type: cell-based
MCF7/ADR-RES = experiment: NCI human tumor cell panel: MCF7/ADR-RES (Breast Cancer); type: cell-based
HS 578T = experiment: NCI human tumor cell panel: HS 578T (Breast Cancer); type: cell-based
MDA-MB-435 = experiment: NCI human tumor cell panel: MDA-MB-435 (Breast Cancer); type: cell-based; settings: MDA-MB-435, read-out: Log10 GI50 (converted)
BT-549 = experiment: NCI human tumor cell panel: BT-549 (Breast Cancer); type: cell-based
HOP-92 = experiment: NCI human tumor cell panel: HOP-92 (Non-Small Cell Lung Cancer)
NCI-H522 = experiment: NCI human tumor cell panel: NCI-H522 (Non-Small Cell Lung Cancer)
[1] = read-out: Log10 GI50 (converted)
[2] = read-out: Log10 TGI (converted)

SMILES: OCc1ccc(-c2ccc(-c3ccc(CO)[se]3)s2)[se]1 [compound 676632]
- GI50 (K-562; K562, K-562, read-out: Log10 GI50 (converted)): 0.0479 µM
- IC (TGI) (K-562; K562, K-562, read-out: Log10 TGI (converted)): > 100 µM
- GI50 (RPMI-8226; RPMI-8226, read-out: Log10 GI50 (converted)): > 100 µM
- IC (TGI) (RPMI-8226; RPMI-8226, read-out: Log10 TGI): > 100 µM
- GI50 (SR; [1]): > 100 µM
- IC (TGI) (SR; [2]): > 100 µM
- GI50 (A549/ATCC; [1]): 2.63 µM
- IC (TGI) (A549/ATCC; [2]): > 100 µM
- GI50 (EKVX; [1]): 50.1 µM
- IC (TGI) (EKVX; [2]): > 100 µM
- GI50 (NCI-H322M; [1]): > 100 µM
- IC (TGI) (NCI-H322M; [2]): > 100 µM
- GI50 (NCI-H460; NCI-H460, read-out: Log10 GI50 (converted)): 0.0468 µM
- IC (TGI) (NCI-H460; NCI-H460, read-out: Log10 TGI (converted)): > 100 µM
- GI50 (KM12; KM12, read-out: Log10 GI50 (converted)): 0.537 µM
- IC (TGI) (KM12; KM12, read-out: Log10 TGI (converted)): > 100 µM
- GI50 (SF-295; SF-295, read-out: Log10 GI50 (converted)): > 100 µM
- IC (TGI) (SF-295; SF-295, read-out: Log10 TGI (converted)): > 100 µM
- GI50 (SF-539; SF-539, read-out: Log10 GI50 (converted)): > 100 µM
- IC (TGI) (SF-539; SF-539, read-out: Log10 TGI (converted)): > 100 µM
- GI50 (SNB-19; SNB-19, read-out: Log10 GI50 (converted)): 42.7 µM
- IC (TGI) (SNB-19; SNB-19, read-out: Log10 TGI (converted)): > 100 µM
- GI50 (LOX IMVI; [1]): > 100 µM
- IC (TGI) (LOX IMVI; [2]): < 100 µM
- GI50 (MALME-3M; [1]): > 100 µM
- IC (TGI) (MALME-3M; [2]): > 100 µM
- GI50 (SK-MEL-28; SK-MEL-28, read-out: Log10 GI50 (converted)): > 100 µM
- IC (TGI) (SK-MEL-28; SK-MEL-28, read-out: Log10 TGI (converted)): > 100 µM
- GI50 (UACC-257; UACC-257, read-out: Log10 GI50 (converted)): 0.0214 µM
- IC (TGI) (UACC-257; UACC-257, read-out: Log10 TGI (converted)): > 100 µM
- GI50 (IGROV1; IGROV-1, IGROV1, read-out: Log10 GI50 (converted)): 0.0324 µM
- IC (TGI) (IGROV1; IGROV-1, IGROV1, read-out: Log10 TGI (converted)): 0.275 µM
- GI50 (OVCAR-3; OVCAR-3, read-out: Log10 GI50 (converted)): 0.0195 µM
- IC (TGI) (OVCAR-3; OVCAR-3, read-out: Log10 TGI (converted)): 0.0676 µM
- GI50 (OVCAR-4): 0.135 µM
- GI50 (OVCAR-5; OVCAR-5, read-out: Log10 GI50 (converted)): 0.0132 µM
- IC (TGI) (OVCAR-5; OVCAR-5, read-out: Log10 TGI (converted)): 0.0776 µM
- GI50 (OVCAR-8; OVCAR-8, read-out: Log10 GI50 (converted)): > 100 µM
- IC (TGI) (OVCAR-8; OVCAR-8, read-out: Log10 TGI (converted)): > 100 µM
- GI50 (786-0; 786-0, read-out: Log10 GI50 (converted)): > 100 µM
- IC (TGI) (786-0; 786-0, read-out: Log10 TGI (converted)): > 100 µM
- GI50 (A498; A498, read-out: Log10 GI50 (converted)): 0.0186 µM
- IC (TGI) (A498; A498, read-out: Log10 TGI (converted)): 0.0427 µM
- GI50 (ACHN; [1]): > 100 µM
- IC (TGI) (ACHN; [2]): > 100 µM
- GI50 (TK-10; TK-10, read-out: Log10 GI50 (converted)): 0.0282 µM
- IC (TGI) (TK-10; TK-10, read-out: Log10 TGI (converted)): 0.0813 µM
- GI50 (UO-31; UO-31, read-out: Log10 GI50 (converted)): > 100 µM
- IC (TGI) (UO-31; UO-31, read-out: Log10 TGI (converted)): > 100 µM
- GI50 (PC-3; PC-3, read-out: Log10 GI50 (converted)): > 100 µM
- IC (TGI) (PC-3; PC-3, read-out: Log10 TGI (converted)): > 100 µM
- GI50 (MCF7/ADR-RES; [1]): > 100 µM
- IC (TGI) (MCF7/ADR-RES; [2]): > 100 µM
- GI50 (HS 578T; [1]): > 100 µM
- IC (TGI) (HS 578T; [2]): > 100 µM
- GI50 (MDA-MB-435): > 100 µM
- GI50 (BT-549; BT-549, read-out: Log10 GI50 (converted)): 0.195 µM
- IC (TGI) (BT-549; BT-549, read-out: Log10 TGI (converted)): > 100 µM
- GI50 (HOP-92; HOP-92, read-out: Log10 GI50 (converted)): > 100 µM
- CC50 (HOP-92; HOP-92, read-out: Log10 LC50 (converted)): > 100 µM
- IC (TGI) (HOP-92; HOP-92, read-out: Log10 TGI): > 100 µM
- GI50 (NCI-H522; NCI-H522, read-out: Log10 GI50 (converted)): > 100 µM
- IC (TGI) (NCI-H522; NCI-H522, read-out: Log10 TGI): > 100 µM
